In patent US20110319397A1 (priority 2009, published 2011):

Target: α7-subtype of nicotinic receptors (Mus musculus, UniProt P49582)
Format: in vivo, mice
Conditions: ex vivo, mouse hippocampal membranes; dose inhibiting specific binding of 3H-α-bungarotoxin (1 nM) by 50%

Chain of α7-subtype of nicotinic receptors (P49582 23-502): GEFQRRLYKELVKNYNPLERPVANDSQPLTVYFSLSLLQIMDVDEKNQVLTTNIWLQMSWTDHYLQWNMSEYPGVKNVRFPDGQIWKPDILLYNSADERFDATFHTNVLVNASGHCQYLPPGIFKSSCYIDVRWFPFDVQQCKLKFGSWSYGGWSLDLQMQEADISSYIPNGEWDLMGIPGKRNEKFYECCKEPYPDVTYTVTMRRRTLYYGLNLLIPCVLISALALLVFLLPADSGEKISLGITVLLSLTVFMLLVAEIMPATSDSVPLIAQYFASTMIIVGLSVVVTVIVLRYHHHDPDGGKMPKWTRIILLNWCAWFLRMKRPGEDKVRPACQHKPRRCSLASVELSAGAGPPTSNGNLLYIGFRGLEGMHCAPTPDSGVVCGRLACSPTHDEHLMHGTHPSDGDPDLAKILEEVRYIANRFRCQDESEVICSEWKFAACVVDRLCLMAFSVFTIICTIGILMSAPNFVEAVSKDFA

## [O-][N+]12CCC(CC1)N(c1nnc(-c3ccoc3)o1)CC2 [Compound 1, 4-(5-Furan-3-yl-[1,3,4]oxadiazol-2-yl)-1,4-diaza-bicyclo[3.2.2]nonane 1-oxide]
  EC50 (mg/kg), Inhibition of 3H-α-Bungarotoxine Binding: 40 mg/kg
